Assay results from US5478864A, “Method for disinfection using a 1,n-bis(N^5 -trifluoromethyl-phenyl-N^1 -biguanido)-alkane” (Mitsubishi Materials Corp., priority 1991, dated 1995).
≈ marks a conversion by molar mass, not a printed value. Like-named read-outs stand apart in the source and are kept apart here.

How the values were obtained:
[1] = test system: Serratia marcescens IID 602; experiment: minimum growth inhibition concentration, agar dilution; type: cell-based
Method: (§1) Germicidal activity of the compound prepared in Example 1 (Compound I) was evaluated by the minimum growth inhibition concentration method (based on the standard method stipulated by Japan Society of Chemotherapy) and the phenol coefficient method.
(§2) A portion of the digluconate salt of the compound of Example 1 was dissolved in water and the solution was heated to dryness on a water bath. The dried salt was dissolved in acetic acid (potentiometric titration grade) and the concentration thereof was determined by potentiometric titration using a perchloric acid solution. The gluconate acid salt solution, whose concentration was thus determined, was diluted to predetermined concentrations with sterilized water. Each 1 ml of the solution of each concentration was placed in a Petri dish, 9 ml of Mueller-Hinton agar (supplied by Difco) was added thereto and well mixed. Thus sensitivity test media were prepared. The concentrations of the compound were 200 μg/ml and 2^n times wherein (n=-8 to 2). Separately, microorganism strains indicated in Table 1 were subcultured in propagation media (using Mueller-Hinton broth supplied by Difco) at 37° C. for 24 hours. The microorganism concentration was adjusted to 10^6 /ml. The thus obtained cultures were respectively inoculated on a series of sensitivity measuring culture media using an inoculation rod. […] The results are shown in Table 1 together with the result on chlorhexidine as a control.
(§3) Compounds of formula I, wherein the trifluoromethyl group is located at the p-position and n is 2, 3, 5, 8 and 11, were prepared starting from ethylene diamine dichloride, 1,3-propane diamine dichloride, 1,5-pentane diamine dichloride, 1,8-octane diamine dichloride or 1,11-undecane diamine dichloride, sodium dicyanamide and 4-trifluoromethyl aniline hydrochloride in accordance with the procedures as described above and minimum growth inhibition concentration (MIC) was determined in the same manner as above.
(§4) Disinfecting effect of the above-prepared compounds was tested by measurement of minimum growth inhibition concentration and by the test for immediate effect in the same manner as in Example 3.
(§5) Compounds of formula I, wherein the trifluoromethyl group is located at the m-position and n is 2, 3, 5 and 8, 11 were prepared starting from ethylene diamine dihydrochloride, 1,3-propane diamine dihydrochloride, 1,5-pentane diamine dihydrochloride, 1,8-octane diamine dihydrochloride or 1,11-undecane diamine dihydrochloride, sodium dicyanamide and 3-trifluoromethylaniline hydrochloride in accordance with the procedures of Example 4 and germicidal activity thereof were determined in the same manner.

[2] = test system: Staphylococcus aureus FDA 209-P; experiment: as above; type: cell-based; conditions: FDA209, Mueller-Hinton agar
Method: as §1, §2, §3, §4, §5

Escherichia coli IID 951 = experiment: as above; type: cell-based
Method: as §1, §2, §3, §4, §5

[3] = test system: Pseudomonas aeruginosa IID 1042; experiment: as above; type: cell-based; conditions: Pseudomonas aeruginosa, IID1042, Mueller-Hinton agar, read-out: MIC
Method: as §1, §2, §3, §4, §5

[4] = test system: some Gram-negative bacteria, especially Pyocyaneus bacilli; conditions: cited from earlier work
[5] = gluconate salt; cited from earlier work
general bacteria = conditions: cited from earlier work
[6] = administered to mucous membranes in a conventionally employed concentration; cited from earlier work
Escherichia coli IID 861 [7] = experiment: minimum growth inhibition concentration, agar dilution; type: cell-based
Method: as §1, §2, §4

[8] = test system: Escherichia coli NIHJ JC-2; experiment: as above; type: cell-based
Method: as §1, §2, §4

[9] = test system: Flavobacterium meningosepticum RIMD 0614002; experiment: as above; type: cell-based; conditions: Elizabethkingia meningoseptica, RIMD0614002; Mueller-Hinton agar; digluconate
Method: as §1, §2, §4

[10] = test system: Staphylococcus epidermis IID 866; experiment: as above; type: cell-based
Method: as §1, §2, §4

[11] = test system: Pseudomonas aerugimosa (clinically collected); experiment: as above; type: cell-based; conditions: Mueller-Hinton agar, digluconate
Method: as §1, §2, §4

[12] = test system: Achromobacter xylosoxidans RIMD 0101001; experiment: as above; type: cell-based; conditions: RIMD0101001, Mueller-Hinton agar, digluconate
Method: as §1, §2, §4

[13] = test system: Alcaligenes faecalis IPO 13111; experiment: as above; type: cell-based; conditions: IPO13111, Mueller-Hinton agar, digluconate
Method: as §1, §2, §4

[14] = test system: Pseudomonas cepacia (collected Chiba Univ.); experiment: as above; type: cell-based; conditions: Burkholderia cepacia, Mueller-Hinton agar, digluconate
Method: as §1, §2, §4

[15] = test system: Klebsiella pneumoniae IID 865; experiment: as above; type: cell-based
Method: as §1, §2, §4

Proteus vulgaris IID 874 = experiment: as above; type: cell-based; conditions: IID874, Mueller-Hinton agar, digluconate
Method: as §1, §2, §4

[16] = test system: Staphylococcus aureus (clin'ly col'ted MRSA); experiment: minimum growth inhibition concentration, agar dilution (second MRSA line); type: cell-based; conditions: Mueller-Hinton agar, digluconate, clinically collected MRSA
Method: as §1, §2, §4

[17] = test system: Staphylococcus aureus (clin'ly col'ted MRSA); experiment: minimum growth inhibition concentration, agar dilution (first MRSA line); type: cell-based
Method: as §1, §2, §4

Escherichia coli IID 861 [18] = experiment: test for immediate effect (phenol coefficient method); type: cell-based; conditions: of three runs, conc. 0.001%, 20° C.
Method: (§6) Immediate effect of this compound was evaluated in accordance with the phenol coefficient method described in "Directions for Hygienic Tests" compiled by the Ministry of Health and Welfare of Japan. The method is as follows. (1) Culture medium Each 10 ml of the bouillon described below was taken into test tubes and they were sterilized with high pressure steam at 120° C. for 20 minutes. (2) Test method Diluted solutions of a series of concentrations of the sample compound were prepared for each of microorganisms listed in Table 2. Each 10 ml of the solutions was put into an appraisal test tube and the test tubes were placed in a thermostat bath kept at 20° C. Each microorganism was subcultured in the above described bouillon medium for testing disinfectants for three generations (37° C. for 48 hours). Each 1 ml of each culture was placed in each of the above-described series of appraisal test tubes and well mixed. After 2.5, 5, 10 and 15 minutes, 0.1 ml of the content of each appraisal test tube was taken and inoculated onto each portion of the bouillon medium for testing disinfectants. […] Each test was carried out three times. Immediate effect of disinfectants was compared by number of test runs in which microorganism growth was observed. […]

[19] = test system: Staphylococcus aureus FDA 209-P; experiment: as above; type: cell-based; conditions: of three runs, conc. 0.0005%, 20° C.
Method: as §6

[20] = test system: Pseudomonas aeruginosa IID 1042; experiment: as above; type: cell-based; conditions: of three runs, conc. 0.03%, 20° C.
Method: as §6

other microorganisms = experiment: minimum growth inhibition concentration, other microorganisms of Table 1; type: cell-based; conditions: against other microorganisms
Method: as §1
A portion of the digluconate salt of the compound of Example 1 was dissolved in water and the solution was heated to dryness on a water bath. The dried salt was dissolved in acetic acid (potentiometric titration grade) and the concentration thereof was determined by potentiometric titration using a perchloric acid solution. The gluconate acid salt solution, whose concentration was thus determined, was diluted to predetermined concentrations with sterilized water. Each 1 ml of the solution of each concentration was placed in a Petri dish, 9 ml of Mueller-Hinton agar (supplied by Difco) was added thereto and well mixed. Thus sensitivity test media were prepared. The concentrations of the compound were 200 μg/ml and 2^n times wherein (n=-8 to 2). Separately, microorganism strains indicated in Table 1 were subcultured in propagation media (using Mueller-Hinton broth supplied by Difco) at 37° C. for 24 hours. The microorganism concentration was adjusted to 10^6 /ml. The thus obtained cultures were respectively inoculated on a series of sensitivity measuring culture media using an inoculation rod. […]

Structure (SMILES): [H]/N=C(\N/C(=N/[H])NCCCCCCNC(=N)NC(=N)Nc1ccc(Cl)cc1)Nc1ccc(Cl)cc1 [CHXD, chlorhexidine, reference compound]
- MIC ([1]; IID602): 6.25 µg/mL (≈ 12.4 µM)
- MIC [2]: 0.78 µg/mL (≈ 1.54 µM)
- MIC (Escherichia coli IID 951; IID951): 1.56 µg/mL (≈ 3.09 µM)
- MIC [3]: 100 µg/mL (≈ 198 µM)
- effect against some Gram-negative bacteria, especially Pyocyaneus bacilli [4]: less effective
- solubility in water [5]: high solubility in water
- disinfecting effect (general bacteria): exhibits disinfecting effect on a wide range of general bacteria
- shock symptoms [6]: sometimes causes shock symptoms
- MIC (Escherichia coli IID 861 [7]; IID861): 1.56 µg/mL (≈ 3.09 µM)
- MIC ([8]; NIHJJC2): 1.56 µg/mL (≈ 3.09 µM)
- MIC [9]: 200 µg/mL (≈ 396 µM)
- MIC ([10]; IID866): 1.56 µg/mL (≈ 3.09 µM)
- MIC [11]: 100 µg/mL (≈ 198 µM)
- MIC [12]: 25 µg/mL (≈ 49.5 µM)
- MIC [13]: 50 µg/mL (≈ 98.9 µM)
- MIC [14]: 100 µg/mL (≈ 198 µM)
- MIC ([15]; IID865): 6.25 µg/mL (≈ 12.4 µM)
- MIC (Proteus vulgaris IID 874): 200 µg/mL (≈ 396 µM)
- MIC [16]: 3.13 µg/mL (≈ 6.19 µM)
- MIC ([17]; MRSA): 6.25 µg/mL (≈ 12.4 µM)
- number of test runs in which microorganism growth was observed (Escherichia coli IID 861 [18]; contact time 2.5 min): 3
- number of test runs in which microorganism growth was observed (Escherichia coli IID 861 [18]; contact time 5.0 min): 3
- number of test runs in which microorganism growth was observed (Escherichia coli IID 861 [18]; contact time 10.0 min): 3
- number of test runs in which microorganism growth was observed (Escherichia coli IID 861 [18]; contact time 15.0 min): 3
- number of test runs in which microorganism growth was observed ([19]; contact time 2.5 min): 3
- number of test runs in which microorganism growth was observed ([19]; contact time 5.0 min): 1
- number of test runs in which microorganism growth was observed ([19]; contact time 10.0 min): 0
- number of test runs in which microorganism growth was observed ([19]; contact time 15.0 min): 0
- number of test runs in which microorganism growth was observed ([20]; contact time 2.5 min): 2
- number of test runs in which microorganism growth was observed ([20]; contact time 5.0 min): 1
- number of test runs in which microorganism growth was observed ([20]; contact time 10.0 min): 0
- number of test runs in which microorganism growth was observed ([20]; contact time 15.0 min): 0

Structure (SMILES): N=C(NCCCCCCNC(=N)NC(=N)Nc1ccc(C(F)(F)F)cc1)NC(=N)Nc1ccc(C(F)(F)F)cc1 [Ex. 1, 1,6-bis(N^5-p-trifluoromethylphenyl-N^1-biguanido)-hexane]
- germicidal effect compared with chlorhexidine (other microorganisms): effective at the same level as chlorhexidine
- MIC ([1]; IID602, Mueller-Hinton agar, IID 602, read-out: MIC): 6.25 µg/mL (≈ 10.9 µM)
- MIC [2]: 1.56 µg/mL (≈ 2.72 µM)
- MIC (Escherichia coli IID 951; IID951, Mueller-Hinton agar, IID 951, read-out: MIC): 3.13 µg/mL (≈ 5.47 µM)
- MIC [3]: 12.5 µg/mL (≈ 21.8 µM)
- MIC (Escherichia coli IID 861 [7]; IID861, Mueller-Hinton agar, digluconate, IID 861, read-out: MIC): 3.13 µg/mL (≈ 5.47 µM)
- MIC ([8]; NIHJJC2, Mueller-Hinton agar, digluconate, NIHJ JC-2, read-out: MIC): 3.13 µg/mL (≈ 5.47 µM)
- MIC [9]: 200 µg/mL (≈ 349 µM)
- MIC ([10]; IID866, Mueller-Hinton agar, digluconate, IID 866, read-out: MIC): 1.56 µg/mL (≈ 2.72 µM)
- MIC [11]: 12.5 µg/mL (≈ 21.8 µM)
- MIC [12]: 50 µg/mL (≈ 87.3 µM)
- MIC [13]: 6.25 µg/mL (≈ 10.9 µM)
- MIC [14]: 50 µg/mL (≈ 87.3 µM)
- MIC ([15]; IID865, Mueller-Hinton agar, digluconate, read-out: MIC): 3.13 µg/mL (≈ 5.47 µM)
- MIC (Proteus vulgaris IID 874): 25 µg/mL (≈ 43.7 µM)
- MIC [16]: 1.56 µg/mL (≈ 2.72 µM)
- MIC ([17]; Mueller-Hinton agar, digluconate, clinically collected MRSA, first line, read-out: MIC): 6.25 µg/mL (≈ 10.9 µM)
- number of test runs in which microorganism growth was observed (Escherichia coli IID 861 [18]; contact time 2.5 min): 3
- number of test runs in which microorganism growth was observed (Escherichia coli IID 861 [18]; contact time 5.0 min): 3
- number of test runs in which microorganism growth was observed (Escherichia coli IID 861 [18]; contact time 10.0 min): 2
- number of test runs in which microorganism growth was observed (Escherichia coli IID 861 [18]; contact time 15.0 min): 1
- number of test runs in which microorganism growth was observed ([19]; contact time 2.5 min): 0
- number of test runs in which microorganism growth was observed ([19]; contact time 5.0 min): 0
- number of test runs in which microorganism growth was observed ([19]; contact time 10.0 min): 0
- number of test runs in which microorganism growth was observed ([19]; contact time 15.0 min): 0
- number of test runs in which microorganism growth was observed ([20]; contact time 2.5 min): 0
- number of test runs in which microorganism growth was observed ([20]; contact time 5.0 min): 0
- number of test runs in which microorganism growth was observed ([20]; contact time 10.0 min): 0
- number of test runs in which microorganism growth was observed ([20]; contact time 15.0 min): 0
